Data on two sequences can be found in article PMC6286779, “HLA-A2-Restricted Epitopes Identified from MTA1 Could Elicit Antigen-Specific Cytotoxic T Lymphocyte Response” (Journal of Immunology Research, 2018).

Test [1] deals with T1, peptide/HLA-A*0201 complexes (Homo sapiens, UniProt P04439, D140Y/D185E/D98H/E176V/E277Q/G131W/G231S/I119V/I121R/I166T/I218V/L300P/L318F/N151K/N90K/P208A/P217A/Q86G/Q94H/R138H/R169H/T345S).
T1 construct: endogenous in cells; host or cells: T2 lymphoblastic cell line (TAP-deficient)
The experiment in a line: T2 stabilization (stability) assay. It is filed as binding. Conditions: T2 cells, peptide 50 μg/ml, 18 h, then brefeldin A 10 μg/ml 1 h; read at 0, 2, 4, 6 h, 37°C; flow cytometry. How it is done: For the stability assay, each of the selected peptides (50 μg/ml) was incubated with T2 cells (1 × 10^6 cells/ml) for 18 h in serum-free RPMI 1640 medium supplemented with 3 μg/ml β2-M at 37°C. Thereafter, cells were washed twice and incubated with brefeldin A (10 μg/ml, eBiosciences, USA) for 1 h. Subsequently, the cells were washed and incubated for 0, 2, 4, and 6 h at 37°C. Cells were washed twice, stained with BB7.2 for 0.5 h at 4°C. Finally, cells were collected, washed, and analyzed by flow cytometry. Dissociation complex 50 (DC50) was defined as time (t) required for the loss of 50% of the HLA-A^∗0201/peptide complexes stabilized at 0 h.
For orientation: A flow cytometer gives signals particle by particle.

The next test has as its target HLA-A*0201 molecules (Homo sapiens, UniProt P04439, D140Y/D185E/D98H/E176V/E277Q/G131W/G231S/I119V/I121R/I166T/I218V/L300P/L318F/N151K/N90K/P208A/P217A/Q86G/Q94H/R138H/R169H/T345S). The experiment in a line: T2 binding assay. Conditions: T2 cells 1 × 10^6 cells/ml, peptide 50 μg/ml, 3 μg/ml β2-M, serum-free RPMI 1640, 18 h, 37°C; BB7.2 staining, flow cytometry; FI > 1.5 = high affinity. The method, then: The binding affinity of these peptides to HLA-A^∗0201 was evaluated according to our previous study. Briefly, T2 cells (1 × 10^6 cells/ml) were incubated with each peptide (50 μg/ml) and 3 μg/ml human β2-microglobulin (β2-M, Merck, Germany) in serum-free RPMI 1640 medium for 18 h at 37°C in a humidified atmosphere of 5% CO2. Then cells were washed twice and incubated with the anti-human HLA-A2 PE-Cyanine7 mAb, BB7.2 (eBioscience, USA) for 0.5 h at 4°C. Finally, cells were collected, washed, and analyzed using flow cytometry (FACSCalibur, Becton Dickinson, USA). The fluorescence index (FI) calculation was performed as follows: FI = [(mean fluorescence intensity (MFI) of the given peptide − background) − (MFI of the PBS control group − background)]/[(MFI of the PBS control group − background)]. The MFI value of cells untreated with peptides and antibodies was employed as background. Peptides with an FI factor of more than 1.5 were classed as high-affinity candidates.

Test [2] relates to T2 cells pulsed with each peptide. The experiment in a line: LDH cytotoxicity assay, CTLs induced in HLA-A2.1/Kb transgenic mice. It is filed as in vivo, human. Conditions: 100 μg peptide + 140 μg T helper epitope in IFA s.c. days 0, 5, 10, splenocytes restimulated 6 days, E/T 50 : 1, n = 5. How it is done: (§1) In vivo induction of peptide-specific CTLs was performed as previously described. Briefly, peptide (100 μg) and the IA^b-restricted HBV-core128 T helper epitope (140 μg) emulsified in incomplete Freund's adjuvant (IFA) were used to subcutaneously immunize at the base of the tail of HLA-A2.1/K^b transgenic mice three times on days 0, 5, and 10. On day 11, all mice were sacrificed through cervical dislocation. Spleen lymphocytes were isolated and restimulated once with 10 μg/ml peptide and 10 U/ml mIL-2 in vitro for an additional 6 days. LDH and IFN-γ ELISPOT assays were performed on day 6 after in vitro stimulation. […]
(§2) Cytotoxic activity of induced T cells was tested based on the quantitation of LDH release using the nonradioactive cytotoxicity assay kit (Promega, USA) at the gradient E/T ratio [29, 31]. Target cells which expressed different levels of MTA1 or peptide-pulsed T2 cells were used as target cells. The anti-human HLA-A2 antibody (BB7.2) was added 30 min before adding effector cells to determine the HLA restriction. Target cells (5 × 10^3/well) were cocultured with the effector cells at 37°C for 4 h. The percentage of specific lysis of the target cells was determined using the equation: percentage of specific lysis = [(experimental release − effector spontaneous release − target spontaneous release)/(target maximum release − target spontaneous release)] × 100.

Test [3] deals with MDA-MB-231 (HLA-A2+, MTA1+). The experiment in a line: LDH cytotoxicity assay, CTLs induced in vitro. It is filed as cell-based, human. The note with it: CTLs induced by peptide 10 μg/ml from donor no. 6; E/T 50 : 1; LDH release, 4 h; n = 3. The method, then: (§3) CTL induction in vitro was conducted according to the procedures previously described. Briefly, PBMCs from eight HLA-A^∗02^+ healthy donors were isolated using Ficoll-Paque density gradient centrifugation and resuspended in RPMI 1640 medium supplemented with 10% FBS. Then, PBMCs were stimulated three times (once a week) with the indicated peptides (10 μg/ml) or protein MTA1(1–283) (at final concentrations of 0, 1, 10, 30, and 50 μg/ml) for 21 days. Human recombinant cytokine interleukin-2 (IL-2) (50 U/ml) was added on day 3 and 1 day after each stimulation. The cytotoxic assay (lactate dehydrogenase (LDH) assay) and IFN-γ secretion enzyme-linked immunospot (ELISPOT) assay were performed on day 21.
as §2
In general terms: LDH leaks from cells whose membrane has failed.

The next test relates to HT-29 (HLA-A2−, MTA1+). The experiment in a line: LDH cytotoxicity assay, CTLs induced in vitro. It is filed as cell-based, human. The note with it: peptide-induced CTLs, HLA-A2-negative control target. How it is done: as §3, §2
A further test deals with SW620 (HLA-A2+, MTA1+). The experiment in a line: LDH cytotoxicity assay, CTLs induced in vitro. It is filed as cell-based, human. The note with it: CTLs induced by peptide 10 μg/ml from donor no. 6; E/T 50 : 1; LDH release, 4 h; n = 3. The method, then: as §3, §2
The test system of test [4] is SW620 incubated with an anti-human HLA-A2 antibody. The experiment in a line: LDH cytotoxicity assay, CTLs induced in vitro, HLA-A2 blocked. Conditions: peptide-induced CTLs, BB7.2 added 30 min before effectors. It is filed as cell-based. How it is done:
as §3, §2

Test [5] has as its system SW620 cells (HLA-A2+, MTA1+). The experiment in a line: LDH cytotoxicity assay, CTLs induced in HLA-A2.1/Kb transgenic mice. It is filed as in vivo, human. Conditions: HLA-A2.1/Kb transgenic mice, 100 μg peptide + 140 μg T helper epitope in IFA s.c. days 0, 5, 10; splenocytes restimulated 6 days; E/T 50 : 1; n = 5. The method, then: as §1
To test the effects of protein, each HLA-A2.1/K^b transgenic mouse was injected subcutaneously at the base of the tail with 100 μg MTA1(1–283) or the same volume of PBS emulsified in IFA twice on days 0 and 7. On day 14, spleen lymphocytes were harvested and stimulated by peptide pool (10 μg/ml) in vitro for another 6 days. LDH, IFN-γ ELISPOT, and IFN-γ intracellular cytokine staining assays were performed on day 6 after the in vitro stimulation. E/T ratios used in the LDH assay were 12.5 : 1, 25 : 1, and 50 : 1.
as §2

Take TLLNETESL [Peptide P129]: the “DC50: time required for the loss of 50% of the HLA-A*0201/peptide complexes stabilized at 0 h” value in test [1] was over 6 h. At HLA-A*0201 molecules, the “FI (fluorescence index)” value was determined as 1.28. Moreover, the “lysis rate of peptide-pulsed T2 target cells, CTLs induced in vivo” value in test [2] is 31.6%. For the same sequence, in test [3], the “lysis rate of MDA-MB-231 cells” value amounted to 14.1%. In the test with HT-29 (HLA-A2−, MTA1+), the “lysis of HT-29 cells” value is reported as “did not lyse”. Besides, the “lysis rate of SW620 cells” value in the test on SW620 (HLA-A2+, MTA1+) was 38.4%. Moreover, the “lysis of SW620 cells incubated with an HLA-A2 blocking antibody” value in test [4] is recorded as “did not lyse”. Also, in test [5], the “lysis rate of SW620 cells, CTLs induced in vivo” value amounted to 51.81%.

YLIRRIEEL [Peptide P22]: in test [1], the “DC50: time required for the loss of 50% of the HLA-A*0201/peptide complexes stabilized at 0 h” value is over 2 h. Moreover, the “FI (fluorescence index)” value on HLA-A*0201 molecules stood at 2.08. In addition, the “lysis rate of peptide-pulsed T2 target cells, CTLs induced in vivo” value in test [2] came to 22.43%. In addition, the “lysis rate of MDA-MB-231 cells” value in test [3] was 24.8%. Further, the “lysis of HT-29 cells” value in the test with HT-29 (HLA-A2−, MTA1+) is “did not lyse”. In addition, the “lysis rate of SW620 cells” value with SW620 (HLA-A2+, MTA1+) was determined as 71.4%. Moreover, in test [4], the “lysis of SW620 cells incubated with an HLA-A2 blocking antibody” value is reported as “did not lyse”. The “lysis rate of SW620 cells, CTLs induced in vivo” value in test [5] worked out at 37.29%.
